± gives the expanded uncertainty stated by the source.
What was measured:
[1] = xn = mol fraction of the nth substance listed; details: 100 kPa, Liquid, x2 = 0.25; for electrical conductivity: Alternating current cell with electrodes; for viscosity: Capillary tube (Ostwald / Ubbelohde) method; for mass density: Pycnometric method
[2] = 101.33 kPa, Liquid; for viscosity: Capillary tube (Ostwald / Ubbelohde) method; for mass density: Pycnometric method

CC(N)=O [ethanamide] + N#C[S-].[K+]
[1]
Details | electrical conductivity [S/m] | mass density [kg/m3] | viscosity [mPa·s]
298.15 K | 0.117 ± 0.0047 | 1197.1 ± 2.1 | 190.16 ± 12
303.15 K | 0.205 ± 0.0082 | 1193.7 ± 2.1 | 127.31 ± 7.9
308.15 K | 0.311 ± 0.012 | 1190.5 ± 2.1 | 88.81 ± 5.4
313.15 K | 0.429 ± 0.017 | 1187.7 ± 2.1 | 63.77 ± 3.9
318.15 K | 0.574 ± 0.023 | 1184.5 ± 2.1 | 48.11 ± 2.9

CCO [ethanol]
[2]
Details | mass density [kg/m3] | viscosity [mPa·s]
298.15 K | 785.2 ± 2 | 1.096 ± 0.066
303.15 K | 781 ± 2 | 1.003 ± 0.06
308.15 K | 776.7 ± 2 | 0.914 ± 0.055
313.15 K | 772.3 ± 2 | 0.834 ± 0.05
318.15 K | 766.3 ± 2 | 0.764 ± 0.046
